The source of these data is patent US9856279B2 (AGIOS PHARMACEUTICALS, INC, priority 2011, dated 2018).

Where only a bound is given, the exact number is not on record here.

The subject of one test is U87MG cells. In words: Cellular assay for IDH1m inhibitors: inhibition of 2-HG production (LC-MS, 48 hours) in U87MG cells. In kind it is cell-based. To be noted: Homo sapiens, U-87 MG, inhibition of 2-HG production, U87R132H cells; read-out: U87R132H IC50. In a few lines: (§1)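 Cells were seeded at 5000/well in DMEM with 10% FBS, incubated overnight, then treated with compound (0.2% DMSO final) for 48 h at 37° C. Medium 2-HG was quantified by LC-MS. IC50 is the concentration reducing 2-HG by 50% versus DMSO control, and CellTiter-Glo viability was read at 72 h.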

The test system of a further test is HT1080 cells. Description: Cellular assay for IDH1m inhibitors: inhibition of 2-HG production (LC-MS, 48 hours) in HT1080 cells. The settings on record: Homo sapiens, HT-1080; inhibition of 2-HG production, HT1080 cells; read-out: HT1080 IC50. Format: cell-based. In a few lines:
as §1

The next test deals with IDH1 R132H (Homo sapiens, UniProt O75874, R132H). Description: Assay for IDH1 R132H inhibitors (NADPH/aKG, resazurin detection). Format: biochemical. The settings on record: enzyme assay of Example 12; read-out: IDH1R132H IC50. Put shortly:
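Compound added to substrate mix (8 uM NADPH, 2 mM aKG), then enzyme mix (0.2 μg/ml IDH1 R132H); 50 min RT in 20 mM Tris pH 7.5, 150 mM NaCl, 10 mM MgCl2, 0.03% BSA. Resazurin detection mix (30 μM) 5 min RT; resorufin fluorescence Ex544/Em590.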

Chain of IDH1 R132H (O75874 whole entry R132H): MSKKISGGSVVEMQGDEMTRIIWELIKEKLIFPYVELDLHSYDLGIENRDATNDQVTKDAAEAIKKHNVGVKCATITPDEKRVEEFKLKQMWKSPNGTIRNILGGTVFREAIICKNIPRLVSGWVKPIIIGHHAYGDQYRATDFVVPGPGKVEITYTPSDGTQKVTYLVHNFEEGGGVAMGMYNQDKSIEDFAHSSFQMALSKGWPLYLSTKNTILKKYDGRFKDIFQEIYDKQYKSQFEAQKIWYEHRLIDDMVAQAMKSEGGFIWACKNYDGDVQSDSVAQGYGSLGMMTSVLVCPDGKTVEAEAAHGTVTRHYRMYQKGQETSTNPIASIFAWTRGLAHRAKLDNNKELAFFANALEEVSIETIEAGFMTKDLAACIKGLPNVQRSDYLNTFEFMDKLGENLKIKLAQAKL

For orientation: IC50 means the concentration that inhibits the measured activity by half. `C=Cc1cc(-c2cc(C#N)c(N3CCN(C(=O)CCOC)[C@H](C)C3)nc2C2CC2)c2ccccc2n1` [Compound 592, (R)-6-cyclopropyl-2-(4-(3-methoxypropanoyl)-3-methylpiperazin-1-yl)-5-(2-vinylquinolin-4-yl)nicotinonitrile]: the IC50 in the test with U87MG cells, in the test on HT1080 cells and at IDH1 R132H was below 500 nM throughout.
In the case of `C=Cc1cc(-c2cc(C#N)c(N3CCN(C(=O)CCO)[C@H](C(C)C)C3)nc2C2CC2)c2ccncc2n1` [Compound 681, (R)-6-cyclopropyl-2-(4-(3-hydroxypropanoyl)-3-isopropylpiperazin-1-yl)-5-(2-vinyl-1,7-naphthyridin-4-yl)nicotinonitrile], the IC50 in the test on U87MG cells, with HT1080 cells and at IDH1 R132H was below 500 nM each time.
Regarding `C=CC(=O)Nc1cccc(C(C)Oc2cc(C#N)c(N3CCN(C(=O)CCOC)[C@H](C)C3)nc2C2CC2)c1` (stereo partly drawn) [Compound 407, N-(3-(1-(5-cyano-2-cyclopropyl-6-((R)-4-(3-methoxypropanoyl)-3-methylpiperazin-1-yl)pyridin-3-yloxy)ethyl)phenyl)acrylamide], the half-inhibitory concentration (IC50) with U87MG cells, in the test with HT1080 cells and at IDH1 R132H was below 500 nM each time.
Regarding `C=Cc1cc(-c2cc(C#N)c(N3CCN(C(C)=O)[C@H](C4CC4)C3)nc2C2CC2)ccn1` [Compound 562, (R)-6-(4-acetyl-3-cyclopropylpiperazin-1-yl)-2-cyclopropyl-2′-vinyl-3,4′-bipyridine-5-carbonitrile], the IC50 with U87MG cells, in the test on HT1080 cells and at IDH1 R132H was below 500 nM each time.
Take `COCCC(=O)N1CCN(c2nc(C3CC3)c(-c3ccc4c(c3)NC(=O)C4)cc2C#N)C[C@H]1C` [Compound 313, (R)-6-cyclopropyl-2-(4-(3-methoxypropanoyl)-3-methylpiperazin-1-yl)-5-(2-oxoindolin-6-yl)nicotinonitrile]: the IC50 in the test on U87MG cells was 500 to 1000 nM; in the test on HT1080 cells, 1000 to 10000 nM; at IDH1 R132H, below 500 nM.
The like results for `COCCC(=O)N1CCN(c2nc(C3CC3)c(-c3cccc4nc(O)ccc34)cc2C#N)C[C@H]1C` [Compound 442, (R)-6-cyclopropyl-5-(2-hydroxyquinolin-5-yl)-2-(4-(3-methoxypropanoyl)-3-methylpiperazin-1-yl)nicotinonitrile] were, in that order, below 500 nM, below 500 nM and below 500 nM.
As to `C=CC(=O)N1CCC=C(c2cc(C#N)c(N3CCN(C(=O)CCO)[C@H](C4CC4)C3)nc2C2CC2)C1` [Compound 727, (R)-5-(1-acryloyl-1,2,5,6-tetrahydropyridin-3-yl)-6-cyclopropyl-2-(3-cyclopropyl-4-(3-hydroxypropanoyl)piperazin-1-yl)nicotinonitrile], the IC50 in the test on U87MG cells, in the test on HT1080 cells and at IDH1 R132H was below 500 nM throughout.
Regarding `C=Cc1cc(-c2c(C3CC3)nc(N3CCN(C(=O)CC4CCCC4)[C@H](C4CC4)C3)c(C#N)c2C)ccn1` [Compound 782, (R)-6-(4-(2-cyclopentylacetyl)-3-cyclopropylpiperazin-1-yl)-2-cyclopropyl-4-methyl-2′-vinyl-3,4′-bipyridine-5-carbonitrile], the IC50 in the test on U87MG cells, with HT1080 cells and on IDH1 R132H was below 500 nM throughout.
Take `C=Cc1cc(-c2c(C3CC3)nc(N3CCN(C(=O)CN4CCC4=O)[C@H](C4CC4)C3)c(C#N)c2C)ccn1` [Compound 811]: the 50% inhibitory concentration (IC50) in the test on U87MG cells, in the test on HT1080 cells and at IDH1 R132H was below 500 nM throughout.
With `COCCC(=O)N1CCN(c2nc(C3CC3)c(O[C@H](C)c3ccccc3)cc2C#N)C[C@H]1C` [Compound 307, 6-cyclopropyl-2-((R)-4-(3-methoxypropanoyl)-3-methylpiperazin-1-yl)-5-((R)-1-phenylethoxy)nicotinonitrile], the half-maximal inhibitory concentration (IC50) is 1000 to 10000 nM in the test with U87MG cells, 1000 to 10000 nM in the test on HT1080 cells and below 500 nM on IDH1 R132H.
`COCCC(=O)N1CCN(c2nc(C3CC3)c(-c3cc4ccccc4nc3Cl)cc2C#N)C[C@H]1C` [Compound 360, (R)-5-(2-chloro-quinolin-3-yl)-6-cyclopropyl-2-[4-(3-methoxy-propionyl)-3-methyl-piperazin-1-yl]-nicotinonitrile]: the half-inhibitory concentration (IC50) was 1000 to 10000 nM with U87MG cells, 1000 to 10000 nM with HT1080 cells and below 500 nM at IDH1 R132H.
Take `C=Cc1ccnc(Nc2cc(C#N)c(N3CCN(C(=O)CC4CCCO4)[C@H](C4CC4)C3)nc2C2CC2)c1` (stereo partly drawn) [Compound 813, 6-cyclopropyl-2-((3R)-3-cyclopropyl-4-(2-(tetrahydrofuran-2-yl)acetyl)piperazin-1-yl)-5-((4-vinylpyridin-2-yl)amino)nicotinonitrile]: the 50% inhibitory concentration (IC50) in the test with U87MG cells, in the test with HT1080 cells and at IDH1 R132H was below 500 nM each time.
For `COCCC(=O)N1CCN(c2nc(C3CC3)c(-c3cccc(-c4cn[nH]c4)c3)cc2C#N)C[C@H]1C` [Compound 406, (R)-6-cyclopropyl-2-[4-(3-methoxy-propionyl)-3-methyl-piperazin-1-yl]-5-[3-(1H-pyrazol-4-yl)-phenyl]-nicotinonitrile], the IC50 is 1000 to 10000 nM in the test with U87MG cells, 1000 to 10000 nM with HT1080 cells and below 500 nM on IDH1 R132H.
In the case of `N#Cc1cc(-c2ccnc(Br)c2)c(C2CC2)nc1N1CCN(C(=O)C2CC2)[C@H](C2CC2)C1` [Compound 508, (R)-2′-bromo-6-(4-(cyclopropanecarbonyl)-3-cyclopropylpiperazin-1-yl)-2-cyclopropyl-3,4′-bipyridine-5-carbonitrile], the IC50 in the test on U87MG cells, in the test on HT1080 cells and on IDH1 R132H was below 500 nM in each case.
`COCCC(=O)N1CCN(c2nc(C3CC3)c(-c3cccc4ncccc34)cc2C#N)C[C@H]1C` [Compound 288, (R)-6-cyclopropyl-2-(4-(3-methoxypropanoyl)-3-methylpiperazin-1-yl)-5-(quinolin-5-yl)nicotinonitrile]: the half-inhibitory concentration (IC50) with U87MG cells, with HT1080 cells and at IDH1 R132H was below 500 nM each time.
`C=Cc1cnc2c(-c3cc(C#N)c(N4CCN(C(=O)CCO)[C@H](C)C4)nc3C3CC3)cccc2n1` [Compound 618, (R)-6-cyclopropyl-2-(4-(3-hydroxypropanoyl)-3-methylpiperazin-1-yl)-5-(2-vinylquinoxalin-5-yl)nicotinonitrile]: the IC50 in the test on U87MG cells, with HT1080 cells and at IDH1 R132H was below 500 nM throughout.
`CCc1cc(-c2cc(C#N)c(N3CCN(C(=O)CCOC)[C@H](C)C3)nc2C2CC2)ccn1` [Compound 426, (R)-2-cyclopropyl-2′-ethyl-6-(4-(3-methoxypropanoyl)-3-methylpiperazin-1-yl)-3,4′-bipyridine-5-carbonitrile]: the half-maximal inhibitory concentration (IC50) was 1000 to 10000 nM in the test on U87MG cells, 1000 to 10000 nM in the test on HT1080 cells and 500 to 1000 nM at IDH1 R132H.
`C/C=C/C(=O)Nc1cccc(COc2cc(C#N)c(N3CCN(C(=O)CCOC)[C@H](C)C3)nc2C2CC2)c1` [Compound 400, (R,E)-N-(3-((5-cyano-2-cyclopropyl-6-(4-(3-methoxypropanoyl)-3-methylpiperazin-1-yl)pyridin-3-yloxy)methyl)phenyl)but-2-enamide]: the figures for the IC50 with U87MG cells, in the test on HT1080 cells and on IDH1 R132H were 1000 to 10000 nM, 1000 to 10000 nM and 500 to 1000 nM, respectively.
As for `C=Cc1ncc2c(-c3cc(C#N)c(N4CCN(C(=O)CCOC)[C@H](C5CC5)C4)nc3C3CC3)cccc2n1` [Compound 635, (R)-6-cyclopropyl-2-(3-cyclopropyl-4-(3-methoxypropanoyl)piperazin-1-yl)-5-(2-vinylquinazolin-5-yl)nicotinonitrile], the IC50 in the test with U87MG cells, in the test on HT1080 cells and at IDH1 R132H was below 500 nM throughout.
In the case of `C=Cc1cc(-c2cc(C#N)c(N3CCN(C(=O)CCOC)[C@H](C4CC4)C3)nc2C2CC2)cnn1` [Compound 674, (R)-6-cyclopropyl-2-(3-cyclopropyl-4-(3-methoxypropanoyl)piperazin-1-yl)-5-(6-vinylpyridazin-4-yl)nicotinonitrile], the concentration for half-maximal inhibition (IC50) with U87MG cells, in the test with HT1080 cells and on IDH1 R132H was below 500 nM each time.
Take `CCOC(=O)N1CCN(c2cc(C#N)c(N3CCN(C(=O)CCOC)[C@H](C)C3)nc2C2CC2)CC1` [Compound 376, (R)-ethyl 4-(5-cyano-2-cyclopropyl-6-(4-(3-methoxypropanoyl)-3-methylpiperazin-1-yl)pyridin-3-yl)piperazine-1-carboxylate]: the figures for the IC50 in the test on U87MG cells, in the test on HT1080 cells and on IDH1 R132H were 500 to 1000 nM, 1000 to 10000 nM and below 500 nM, respectively.
In the case of `COCCC(=O)N1CCN(c2nc(C3CC3)c(OC(c3ccccc3)C(C)C)cc2C#N)C[C@H]1C` (stereo partly drawn) [Compound 302, 6-cyclopropyl-2-((R)-4-(3-methoxypropanoyl)-3-methylpiperazin-1-yl)-5-(2-methyl-1-phenylpropoxy)nicotinonitrile], the values for the IC50 in the test with U87MG cells, in the test on HT1080 cells and at IDH1 R132H were 1000 to 10000 nM, 1000 to 10000 nM and below 500 nM, respectively.
`COCCC(=O)N1CCN(c2nc(C3CC3)c(OCc3ccc(C(=O)OC)cc3)cc2C#N)C[C@H]1C` [Compound 293, (R)-methyl 4-((5-cyano-2-cyclopropyl-6-(4-(3-methoxypropanoyl)-3-methylpiperazin-1-yl)pyridin-3-yloxy)methyl)benzoate]: the concentration for half-maximal inhibition (IC50) was 1000 to 10000 nM in the test on U87MG cells, 1000 to 10000 nM in the test with HT1080 cells and below 500 nM at IDH1 R132H.
`COCCC(=O)N1CCN(c2nc(C3CC3)c(-c3ccc(F)nc3)c(C)c2C#N)C[C@H]1C` [Compound 346]: the values for the 50% inhibitory concentration (IC50) with U87MG cells, in the test on HT1080 cells and at IDH1 R132H were 500 to 1000 nM, 1000 to 10000 nM and below 500 nM, respectively.
